Reference: US11555012B2 (Nimbus Artemis, Inc., priority 2018, dated 2023)

Biological target: ACL (Homo sapiens (Human), UniProt P53396)
Test: ADP-Glo Assay

Sequence of ACL (P53396 other isoform, or with tags, fused parts or gaps isoform P53396-2): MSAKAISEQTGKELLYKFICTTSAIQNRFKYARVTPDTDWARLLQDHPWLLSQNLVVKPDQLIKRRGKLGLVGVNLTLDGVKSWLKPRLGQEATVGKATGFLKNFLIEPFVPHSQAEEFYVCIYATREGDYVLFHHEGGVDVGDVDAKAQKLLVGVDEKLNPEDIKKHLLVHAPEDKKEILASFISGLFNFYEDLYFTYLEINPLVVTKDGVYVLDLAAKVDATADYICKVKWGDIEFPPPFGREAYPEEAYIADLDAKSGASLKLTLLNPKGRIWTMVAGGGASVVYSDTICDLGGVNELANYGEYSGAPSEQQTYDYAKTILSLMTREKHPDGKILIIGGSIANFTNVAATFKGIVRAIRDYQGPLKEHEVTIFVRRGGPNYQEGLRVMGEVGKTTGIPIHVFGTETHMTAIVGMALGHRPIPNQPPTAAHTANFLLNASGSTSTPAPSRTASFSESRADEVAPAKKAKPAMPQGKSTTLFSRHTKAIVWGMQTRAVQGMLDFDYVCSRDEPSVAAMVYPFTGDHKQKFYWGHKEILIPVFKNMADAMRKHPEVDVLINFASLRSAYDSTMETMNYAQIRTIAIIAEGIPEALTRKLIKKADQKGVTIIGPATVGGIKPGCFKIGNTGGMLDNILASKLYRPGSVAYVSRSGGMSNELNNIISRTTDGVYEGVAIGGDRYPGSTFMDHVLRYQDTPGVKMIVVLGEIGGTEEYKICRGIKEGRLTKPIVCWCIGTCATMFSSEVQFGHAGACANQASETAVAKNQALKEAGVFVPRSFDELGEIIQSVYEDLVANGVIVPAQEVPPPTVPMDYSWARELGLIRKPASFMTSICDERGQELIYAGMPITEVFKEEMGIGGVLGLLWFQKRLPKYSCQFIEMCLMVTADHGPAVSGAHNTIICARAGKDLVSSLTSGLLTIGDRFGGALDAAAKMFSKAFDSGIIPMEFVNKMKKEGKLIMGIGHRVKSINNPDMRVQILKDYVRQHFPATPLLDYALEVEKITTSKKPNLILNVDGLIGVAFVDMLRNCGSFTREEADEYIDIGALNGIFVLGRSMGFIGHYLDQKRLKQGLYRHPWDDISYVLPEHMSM

Row | Compound | IC50 [µM]
1 | COc1ccc(-c2ccccc2)cc1NS(=O)(=O)c1c(C)nn(C)c1Cl [I-400, 5-chloro-N-(4-methoxy-[1,1′-biphenyl]-3-yl)-1,3-dimethyl-1H-pyrazole-4-sulfonamide] | > 20
2 | CC(C)(C)OC(=O)n1ccc2cccc(S(=O)(=O)Nc3cc(-c4ccccc4)ccc3F)c21 [I-382, tert-butyl 7-(N-(4-fluoro-[1,1′-biphenyl]-3-yl)sulfamoyl)-1H-indole-1-carboxylate] | > 20
3 | CC(C)S(=O)(=O)Nc1ccc(S(=O)(=O)Nc2cc(-c3ccccc3)ccc2F)cc1F [I-524, 3-fluoro-N-(4-fluoro-[1,1′-biphenyl]-3-yl)-4-((1-methylethyl)sulfonamido)benzenesulfonamide] | > 20
4 | O=S(=O)(Nc1ccc(F)cc1F)c1cc(Cl)cc(-c2nn[nH]n2)c1 [I-373, 3-chloro-N-(2,4-difluorophenyl)-5-(2H-1,2,3,4-tetrazol-5-yl)benzene-1-sulfonamide] | > 20
5 | N#Cc1cccc(S(=O)(=O)Nc2cc(-c3ccccc3)ccc2F)c1 [I-419, 3-cyano-N-(2-fluoro-5-phenylphenyl)benzene-1-sulfonamide] | > 20
6 | CS(=O)(=O)NC(=O)c1ccc(F)c(NS(=O)(=O)c2cc(Cl)cc(Cl)c2O)c1 [I-423, 3-[(3,5-dichloro-2-hydroxybenzene)sulfonamido]-4-fluoro-N-methanesulfonylbenzamide] | > 20
7 | COc1ccc(-c2ccccc2)cc1N(Cc1ccccc1)S(=O)(=O)c1cn[nH]c1 [I-417, N-benzyl-N-(2-methoxy-5-phenylphenyl)-1H-pyrazole-4-sulfonamide] | > 20
8 | O=C(O)CCc1cc(Cl)c(O)c(S(=O)(=O)Nc2cc(F)cc(F)c2)c1 [I-399, 3-(3-chloro-5-(N-(3,5-difluorophenyl)sulfamoyl)-4-hydroxyphenyl) Propanoic Acid] | > 20
9 | O=S(=O)(Nc1cc(-c2ccccc2)ccc1F)c1cccc2cc[nH]c12 [I-377, N-[4-fluoro-[1,1-biphenyl]-3-yl]-1H-indole-7-sulfonamide] | > 20
10 | COc1ccc(-c2ccccc2)cc1N(C)S(=O)(=O)c1cc(Cl)cc(Cl)c1OC [I-401, 3,5-dichloro-2-methoxy-N-(4-methoxy-[1,1′-biphenyl]-3-yl)-N-methylbenzenesulfonamide] | > 20
11 | CC(C)(C)OC(=O)COc1c(Cl)cc(C(=O)N2CCC2)cc1S(=O)(=O)Nc1cc(-c2ccccc2)c(F)cc1F [I-387, tert-butyl 2-[4-(azetidine-1-carbonyl)-2-chloro-6-([4,6-difluoro-[1,1-biphenyl]-3-yl]sulfamoyl)phenoxy]acetate] | > 20
12 | CC(C)n1ncc2cc(NS(=O)(=O)c3cc(Cl)cc(Cl)c3O)ccc21 [I-169] | 0.5 to 20
13 | O=S(=O)(NCC1COc2ccccc2C1)c1cc(Cl)cc(Cl)c1O (stereo not drawn) [I-185] | 0.5 to 20
14 | O=C(O)COc1c(Cl)cc(C(=O)N2CCC2)cc1S(=O)(=O)Nc1cc(-c2ccccc2)c(F)cc1F [I-199, 2-[4-(azetidine-1-carbonyl)-2-chloro-6-([4,6-difluoro-[1,1-biphenyl]-3-yl]sulfamoyl)phenoxy]acetic Acid] | 0.5 to 20
15 | CC(C)(CNS(=O)(=O)c1cc(Cl)cc(Cl)c1O)c1cccs1 [I-173] | 0.5 to 20
16 | O=S(=O)(Nc1cc(-c2ccccc2)ccc1F)c1cc(Cl)cc(Cl)c1OCC(F)(F)F [I-85, 3,5-dichloro-N-(2-fluoro-5-phenylphenyl)-2-(2,2,2-trifluoroethoxy)benzene-1-sulfonamide] | 0.5 to 20
17 | O=S(=O)(Nc1cc(F)cc(N2CCOCC2)c1)c1cc(Cl)cc(Cl)c1O [I-182] | 0.5 to 20
18 | Cc1ccc(C(=O)O)c(NS(=O)(=O)c2cc(Cl)cc(Cl)c2)n1 [I-527, 2-((3,5-dichlorophenyl)sulfonamido)-6-methylnicotinic acid] | > 20
19 | COC(=O)c1cccc(S(=O)(=O)Nc2cc(-c3ccccc3)ccc2OC)c1 [I-421, methyl 3-(N-(4-methoxy-[1,1′-biphenyl]-3-yl)sulfamoyl)benzoate] | > 20
20 | CN(c1cc(-c2ccccc2)c(F)cc1C(=O)O)S(=O)(=O)c1cc(Cl)cc(Cl)c1 [I-325, 5-((3,5-dichloro-N-methylphenyl)sulfonamido)-2-fluoro-[1,1′-biphenyl]-4-carboxylic Acid] | 0.5 to 20
21 | O=C(O)COc1ccccc1S(=O)(=O)Nc1cc(-c2ccccc2)ccc1F [I-379, 2-(2-(N-(4-fluoro-[1,1′-biphenyl]-3-yl)sulfamoyl)phenoxy)acetic Acid] | > 20
22 | COc1cccc(CCNS(=O)(=O)c2cc(Cl)cc(Cl)c2O)c1 [I-188] | 0.5 to 20
23 | O=C(O)c1cc(NC(=O)c2cccc3ncccc23)ccc1Cl [I-531, 2-chloro-5-(quinoline-5-carboxamido)benzoic acid] | > 20
24 | COc1ccc(-c2ccccc2)cc1NS(=O)(=O)c1cccc(-c2nnn(C)n2)c1 [I-436, N-(2-methoxy-5-phenylphenyl)-3-(2-methyl-2H-1,2,3,4-tetrazol-5-yl)benzene-1-sulfonamide] | > 20
25 | O=C(c1cc(Cl)cc(S(=O)(=O)Nc2cc(-c3ccccc3)c(F)cc2F)c1)N1CCC1 [I-386, 3-(azetidine-1-carbonyl)-5-chloro-N-(4,6-difluoro-[1,1′-biphenyl]-3-yl)benzenesulfonamide] | > 20
26 | N#Cc1cc(Cl)cc(S(=O)(=O)Nc2cc(-c3ccccc3)ccc2O)c1 [I-218, 3-chloro-5-cyano-N-[4-hydroxy-[1,1-biphenyl]-3-yl]benzene-1-sulfonamide] | 0.5 to 20
27 | Cc1cccc(C(=O)O)c1NS(=O)(=O)c1cc(Cl)cc(Cl)c1 [I-533, 2-((3,5-dichlorophenyl)sulfonamido)-3-methylbenzoic acid] | > 20

More lines, now with the values ahead:

Row | IC50 [µM] | Compound
28 | 0.5 to 20 | CN(C)C(=O)c1cc(Cl)c(O)c(S(=O)(=O)Nc2cc(-c3ccccc3)ccc2C(=O)O)c1 [I-271, 3-((3-chloro-5-(dimethylcarbamoyl)-2-hydroxyphenyl)sulfonamido)-[1,1′-biphenyl]-4-carboxylic Acid]
29 | 0.5 to 20 | O=C(O)c1ccc(-c2ccccc2)cc1NS(=O)(=O)c1cc(Br)cs1 [I-319, 3-((4-bromothiophene)-2-sulfonamido)-[1,1′-biphenyl]-4-carboxylic acid]
30 | 0.5 to 20 | N#Cc1cc(S(=O)(=O)Nc2cc(-c3ccccc3)ccc2F)ccc1Cl [I-251]
31 | 0.5 to 20 | O=S(=O)(Nc1cc(-c2ccccc2)c(F)cc1F)c1ccccc1O [I-230, N-[4,6-difluoro-[1,1-biphenyl]-3-yl]-2-hydroxybenzene-1-sulfonamide]
32 | 0.5 to 20 | O=C(O)c1ccc(C(F)(F)F)cc1NS(=O)(=O)c1cc(Cl)cc(Cl)c1 [I-324, 2-((3,5-dichlorophenyl)sulfonamido)-4-(trifluoromethyl)benzoic Acid]
33 | 0.5 to 20 | COc1ccc(-c2ccccc2)cc1NS(=O)(=O)c1cc(C(=O)O)cc(Cl)c1OC [I-39, 3-chloro-4-methoxy-5-(N-(4-methoxy-[1,1′-biphenyl]-3-yl)sulfamoyl)benzoic Acid]
34 | 0.5 to 20 | O=C(O)COc1c(Cl)cc(Cl)cc1S(=O)(=O)Nc1cc(-c2ccccc2)c(F)cc1F [I-77, 2-(2,4-dichloro-6-(N-(4,6-difluoro-[1,1′-biphenyl]-3-yl)sulfamoyl)phenoxy)acetic Acid]
35 | 0.5 to 20 | O=C(Nc1cc(-c2ccccc2)c(F)cc1F)c1cc(C(=O)N2CCCC2)cc(Cl)c1O [I-150, 3-chloro-N-(4,6-difluoro-[1,1′-biphenyl]-3-yl)-2-hydroxy-5-(pyrrolidine-1-carbonyl)benzamide]
36 | 0.5 to 20 | O=C(O)c1cc(Cl)c(O)c(S(=O)(=O)Nc2ccc(F)cc2F)c1 [I-76, 3-chloro-5-[(2,4-difluorophenyl)sulfamoyl]-4-hydroxybenzoic Acid]
37 | 0.5 to 20 | O=S(=O)(Nc1cc(-c2ccccc2)ccc1F)c1ccccc1O [I-35, N-(2-fluoro-5-phenylphenyl)-2-hydroxybenzene-1-sulfonamide]
38 | 0.5 to 20 | O=C(O)c1c(NS(=O)(=O)c2cc(Cl)cc(Cl)c2)sc2c1CCCC2 [I-363, 2-((3,5-dichlorophenyl)sulfonamido)-4,5,6,7-tetrahydrobenzo[b]thiophene-3-carboxylic Acid]
39 | 0.5 to 20 | COc1ccc(-c2ccccc2)cc1NS(=O)(=O)c1cc(Cl)c(O)c(Br)c1 [I-44, 3-bromo-5-chloro-4-hydroxy-N-(2-methoxy-5-phenylphenyl)benzene-1-sulfonamide]
40 | 0.5 to 20 | C=CCN(c1cc(-c2ccccc2)ccc1F)S(=O)(=O)c1cc(C(=O)OC)cc(Cl)c1O [I-108, Methyl 3-(N-allyl-N-(4-fluoro-[1,1′-biphenyl]-3-yl)sulfamoyl)-5-chloro-4-hydroxybenzoate]
41 | 0.5 to 20 | COc1cc(F)c(-c2cc3ccccc3s2)cc1NS(=O)(=O)c1cc(C(=O)O)cc(F)c1O [I-517, 3-(N-(5-(benzo[b]thiophen-2-yl)-4-fluoro-2-methoxyphenyl)sulfamoyl)-5-fluoro-4-hydroxybenzoic Acid]
42 | 0.5 to 20 | O=C(O)c1ccc(-c2ccccc2)cc1NS(=O)(=O)c1cc(Cl)cc(C(=O)N2CCC2)c1 [I-227, 3-((3-(azetidine-1-carbonyl)-5-chlorophenyl)sulfonamido)-[1,1′-biphenyl]-4-carboxylic Acid]
43 | 0.5 to 20 | COc1ccc(-c2ccccc2)cc1N(C)S(=O)(=O)c1cc(Cl)cc(Cl)c1O [I-17, 3,5-dichloro-2-hydroxy-N-(4-methoxy-[1,1′-biphenyl]-3-yl)-N-methylbenzenesulfonamide]
44 | 0.5 to 20 | COC(=O)c1cc(Cl)c(OC)c(S(=O)(=O)Nc2cc(-c3ccccc3)c(F)cc2F)c1 [I-63, Methyl 3-chloro-5-(N-(4,6-difluoro-[1,1′-biphenyl]-3-yl)sulfamoyl)-4-methoxybenzoate]
45 | 0.5 to 20 | CC(NS(=O)(=O)c1cc(Cl)cc(Cl)c1O)c1ccc2c(c1)NC(=O)CO2 (stereo not drawn) [I-184]
46 | 0.5 to 20 | O=C(O)c1cc(Cl)cc(S(=O)(=O)Nc2cc(-c3ccccc3)c(F)cc2F)c1 [I-147, 3-chloro-5-(N-(4,6-difluoro-[1,1′-biphenyl]-3-yl)sulfamoyl)benzoic Acid]
47 | 0.5 to 20 | O=S(=O)(NCC1(Cc2ccc(F)cc2)CC1)c1cc(Cl)cc(Cl)c1O [I-187]
48 | 0.05 to 0.5 | O=C(O)c1cc(Cl)c(O)c(S(=O)(=O)Nc2cc(-c3cc4ccccc4s3)c(F)cc2F)c1 [I-507, 3-(N-(5-(benzo[b]thiophen-2-yl)-2,4-difluorophenyl)sulfamoyl)-5-chloro-4-hydroxybenzoic Acid]
